Results reported in PMC4742234, “Screening of Drug Metabolizing Enzymes for the Ginsenoside Compound K In Vitro: An Efficient Anti-Cancer Substance Originating from Panax Ginseng” (PLoS ONE, 2016).
Where “and” joins values, the source holds several entries; their conditions need not be identical. Equal entries are not always repeated. Entries after “also recorded” stand apart in the source; their conditions may differ.

How the values were obtained:
Assay type in all cases: in vitro ADME
CYP2D6 = target: T1, CYP2D6 (Homo sapiens, UniProt P10635); experiment: Inhibition of CYP2D6 (metoprolol α-hydroxylation) by CK in HLMs
T1 construct: tissue Cypex Ltd. (U.K.); host or cells: pooled human liver microsomes
T1 sequence (P10635 whole entry): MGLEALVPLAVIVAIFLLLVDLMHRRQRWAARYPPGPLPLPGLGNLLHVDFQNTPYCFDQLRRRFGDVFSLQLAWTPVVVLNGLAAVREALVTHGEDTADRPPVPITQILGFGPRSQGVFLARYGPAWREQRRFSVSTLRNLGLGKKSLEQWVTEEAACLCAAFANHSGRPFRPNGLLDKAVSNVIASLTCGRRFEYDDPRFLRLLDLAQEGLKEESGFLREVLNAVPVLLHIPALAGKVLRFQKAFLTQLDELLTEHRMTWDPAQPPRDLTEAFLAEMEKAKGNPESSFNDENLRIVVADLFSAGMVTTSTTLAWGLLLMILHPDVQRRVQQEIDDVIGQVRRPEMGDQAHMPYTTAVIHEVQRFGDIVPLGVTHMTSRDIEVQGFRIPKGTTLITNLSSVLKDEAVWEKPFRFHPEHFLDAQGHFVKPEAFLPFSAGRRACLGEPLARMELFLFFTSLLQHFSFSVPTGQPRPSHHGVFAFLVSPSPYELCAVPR
Description: (§1) The method was conducted according to our previous study with some modifications. The CYP isoform-specific probe reactions used were phenacetin O-deethylation (for CYP1A2), coumarin 7-hydroxylation (for CYP2A6), tolbutamide 4-hydroxylation (for CYP2C9), metoprolol α-hydroxylation (for CYP2D6), chlorzoxazone 6-hydroxylation (for CYP2E1),S-Mephenytoin 4-hydroxylation (for CYP2C19), and midazolam 1-hydroxylation (for CYP3A4). The kinetic study of CK was conducted with HLMs. A 0.2 mL incubation mixture that consisted of CK (as a substrate), the HLMs (0.5 mg/mL) or CYP isoforms (10 pmol), and 0.1 M sodium phosphate buffer (pH 7.4) was pre-warmed for 5 min at 37°C. The reaction was initiated by the addition of 1 mg/mL triphosphopyridine nucleotide (NADPH). All the reagents were dissolved in methanol, and the final solvent concentration in all incubations (including the controls) was 1%. The final incubations were performed in a shaking water bath (37°C) for 30 min. The reactions were stopped by adding 0.2 mL ice-cold acetonitrile, which contains irbesartan (114.9 ng/mL) as the internal standard. The samples were vortexed for 5 min. After centrifugation (12000×g for 10 min), the supernatants were transferred, and aliquots of 20 μL were injected into the HPLC-MS/MS system for analysis.
(§2) CK (10–100 μM) and a single CYP isoform-specific substrate (with a concentration similar to its corresponding Kmvalue) were used to determine the inhibitory effect of CK on specific CYP isoforms as described in detail previously. Substrates including phenacetin, coumarin, tolbutamide, metoprolol, chlorzoxazone, S-Mephenytoin, and midazolam were used at concentrations of 10, 5, 100, 7.5, 40, 100, and 5 μM, respectively. All incubation conditions were the same as mentioned above. The inhibitory effects on the CYP isoforms were investigated individually by incubating the HLMs in the absence or presence of CK. […]

CYP2C9 [1] = target: T2, CYP2C9 (Homo sapiens, UniProt P11712); experiment: Inhibition of CYP2C9 (tolbutamide 4-hydroxylation) by CK in HLMs; parameters: tissue Cypex Ltd. (U.K.); host or cells: pooled human liver microsomes
T2 sequence (P11712 whole entry): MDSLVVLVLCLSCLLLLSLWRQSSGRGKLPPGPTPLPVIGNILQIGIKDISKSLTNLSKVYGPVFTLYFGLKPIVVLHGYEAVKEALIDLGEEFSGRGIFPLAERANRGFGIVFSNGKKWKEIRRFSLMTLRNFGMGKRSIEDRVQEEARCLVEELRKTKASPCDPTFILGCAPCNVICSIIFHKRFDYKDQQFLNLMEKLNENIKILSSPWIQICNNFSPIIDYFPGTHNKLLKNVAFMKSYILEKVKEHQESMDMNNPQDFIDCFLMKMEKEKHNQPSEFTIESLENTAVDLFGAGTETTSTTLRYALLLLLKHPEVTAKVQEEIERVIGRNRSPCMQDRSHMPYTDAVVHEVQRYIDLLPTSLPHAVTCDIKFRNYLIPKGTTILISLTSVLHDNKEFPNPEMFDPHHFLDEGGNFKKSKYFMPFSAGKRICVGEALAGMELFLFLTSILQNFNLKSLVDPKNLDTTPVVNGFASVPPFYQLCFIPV
Description: as §1
CK (10–100 μM) and a single CYP isoform-specific substrate (with a concentration similar to its corresponding Kmvalue) were used to determine the inhibitory effect of CK on specific CYP isoforms as described in detail previously. Substrates including phenacetin, coumarin, tolbutamide, metoprolol, chlorzoxazone, S-Mephenytoin, and midazolam were used at concentrations of 10, 5, 100, 7.5, 40, 100, and 5 μM, respectively. All incubation conditions were the same as mentioned above. The inhibitory effects on the CYP isoforms were investigated individually by incubating the HLMs in the absence or presence of CK. The incubation solution with the solvent that was used to dissolve CK was regarded as the negative control, and the solutions containing the specific inhibitors mentioned above were considered the positive controls.
Therefore, Dixon plots for the inhibition of CYP2C9 and CYP3A4 were determined by incubating the substrate probe at multiple concentrations with or without the test inhibitor with the HLMs and cofactors. The inhibition data obtained from the pilot experiments were used as a guide to generate the appropriate probe substrate and test inhibitor concentrations for the determination of the Ki values for each CYP isoform. The isoform-specific probe substrate concentrations used were 25–200 μM tolbutamide for CYP2C9 and 5–50 μM midazolam for CYP3A4. The CK concentrations used were 10–100 μM.
Therefore, we used S/V versus [I] plots to determine the Ki’ values for the inhibition of CYP2C9 and CYP3A4. When Ki>Ki’, the intersection was above the [I] axis in the plot of S/V against [I] and below it in the Dixon plot; the opposite was true if Ki<Ki’. In the special case where Ki = Ki’ (simple non-competitive inhibition), the intersections occurred on the [I] axis in both plots. The asymptotic cases of competitive and uncompetitive inhibition can be generated by inserting the conditions Ki’ to ∞ for competitive inhibition, or Ki to ∞ for uncompetitive inhibition.
As described in detail previously, to determine the major enzymes responsible for the CK metabolism in HLMs, the metabolic clearance rate of the incubation solution without any specific inhibitor for CK was considered as 100%. The effects of the specific inhibitors on the metabolic clearance rate of CK were evaluated with SPSS one-way analysis of variance (SPSS Inc., Chicago, IL, USA). P<0.05 was considered significant in all cases. The apparent kinetic parameters of CK (Km and Vmax) were determined by fitting the Michaelis–Menten equation using the GraphPad Prism Enzyme Kinetic 5 Demo software (GraphPad Co. Ltd, San Diego, CA, USA). […]

CYP2C19 = target: T3, CYP2C19 (Homo sapiens, UniProt P33261); experiment: Inhibition of CYP2C19 (S-Mephenytoin 4-hydroxylation) by CK in HLMs
T3 construct: tissue Cypex Ltd. (U.K.); host or cells: pooled human liver microsomes
T3 sequence (P33261 whole entry): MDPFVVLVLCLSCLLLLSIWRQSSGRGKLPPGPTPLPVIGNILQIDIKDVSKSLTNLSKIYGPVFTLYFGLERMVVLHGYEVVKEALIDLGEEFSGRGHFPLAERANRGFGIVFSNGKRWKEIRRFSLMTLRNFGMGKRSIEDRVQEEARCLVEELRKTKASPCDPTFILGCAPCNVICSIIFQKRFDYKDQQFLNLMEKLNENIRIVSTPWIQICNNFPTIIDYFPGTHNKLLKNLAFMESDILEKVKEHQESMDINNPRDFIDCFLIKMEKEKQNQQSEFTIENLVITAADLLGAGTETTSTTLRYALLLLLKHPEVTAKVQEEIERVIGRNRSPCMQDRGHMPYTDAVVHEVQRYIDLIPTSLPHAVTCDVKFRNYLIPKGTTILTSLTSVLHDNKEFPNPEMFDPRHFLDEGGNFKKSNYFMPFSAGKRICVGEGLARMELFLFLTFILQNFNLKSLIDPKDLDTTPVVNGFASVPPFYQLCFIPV
Description: as §1, §2

CYP2C9 [2] = target: T2, CYP2C9; experiment: Effect of specific inhibitor sulfaphenazole on CK metabolism in HLMs; parameters: tissue Cypex Ltd. (U.K.); host or cells: pooled human liver microsomes; conditions: CK 50 μM, in the presence of sulfaphenazole 1 μM
Description: The method was conducted according to our previous study with some modifications. The CYP isoform-specific probe reactions used were phenacetin O-deethylation (for CYP1A2), coumarin 7-hydroxylation (for CYP2A6), tolbutamide 4-hydroxylation (for CYP2C9), metoprolol α-hydroxylation (for CYP2D6), chlorzoxazone 6-hydroxylation (for CYP2E1),S-Mephenytoin 4-hydroxylation (for CYP2C19), and midazolam 1-hydroxylation (for CYP3A4). The kinetic study of CK was conducted with HLMs. A 0.2 mL incubation mixture that consisted of CK (as a substrate), the HLMs (0.5 mg/mL) or CYP isoforms (10 pmol), and 0.1 M sodium phosphate buffer (pH 7.4) was pre-warmed for 5 min at 37°C. The reaction was initiated by the addition of 1 mg/mL triphosphopyridine nucleotide (NADPH). […]
To screen the specific CYP isoform responsible for the CK metabolism, we determined the inhibitory effect of specific inhibitors on the metabolism of CK in the HLMs as described in detail previously. […] The inhibitory effects of the above specific inhibitors on the metabolic clearance rate of CK were evaluated separately to screen the CYP isoforms responsible for the CK metabolism. The relative activity of the CYP isoforms was calculated by dividing the peak area of CK when incubated with the inhibitor by that of CK from the negative controls. […]

[3] = classified by IC50 according to Kong et al
[4] = CYP2C9 in HLMs, sulfaphenazole values ref 15, 16

## CC(C)=CCC[C@](C)(OC1O[C@H](CO)[C@@H](O)[C@H](O)[C@H]1O)[C@H]1CC[C@]2(C)[C@@H]1[C@H](O)C[C@@H]1[C@@]3(C)CC[C@H](O)C(C)(C)[C@@H]3CC[C@]12C (stereo partly drawn) [CK, 20-O-β-(D-glucopyranosyl)-20(S)-protopanaxadiol]
CYP2D6; HLMs, CK 10–100 μM
  inhibitory effect on the activity of CYP2D6: minimal; also recorded: negligible
CYP2D6; HLMs, metoprolol 7.5 μM, CK 10–100 μM
  IC50: > 100 µM
CYP2D6; [3]
  inhibitor potency class for CYP2D6: weak (weak, if IC50≥100 μg/mL or ≥50 μM)
CYP2C9 [1]; [4]
  IC50 of CK higher than that of sulfaphenazole: 11-53 fold
  Ki of CK higher than that of sulfaphenazole: 49 fold
CYP2C9 [1]; HLMs, Dixon and S/V versus [I] plots
  type of inhibition of CYP2C9: mixed type
CYP2C9 [1]; HLMs, tolbutamide 4-hydroxylation, tolbutamide 100 μM, CK 10–100 μM
  IC50: 16 µM
CYP2C9 [1]; HLMs, tolbutamide 25–200 μM, secondary plot of Lineweaver–Burk slopes
  Ki: 14.9 µM
CYP2C9 [1]; [3]
  inhibitor potency class for CYP2C9: moderate (moderate, if IC50 20–100 μg/mL or 10–50 μM)
CYP2C19; HLMs, CK 10–100 μM
  inhibitory effect on the activity of CYP2C19: minimal; also recorded: negligible
CYP2C19; HLMs, S-Mephenytoin 100 μM, CK 10–100 μM
  IC50: > 100 µM
CYP2C19; [3]
  inhibitor potency class for CYP2C19: weak (weak, if IC50≥100 μg/mL or ≥50 μM)
CYP2C9 [2]
  metabolic clearance rate (MCR) of CK, of that of the control: 73.5±20.9% and 73.5%
